Tests used:
[1] = cited from earlier work
brain opiate receptor = details: in vitro; cited from earlier work
mice [2] = assay: Hot plate analgesiometer in mice, intraperitoneal injection; format: in vivo
Procedure: The drug was administered by intraperitoneal injection, employing the solution prepared according to Example 1. Three groups of mice, 5 animals per group, received a single injection ip of Substance P or vehicle alone. Mice weighed 30 grams each. Group 1: Substance P, 5 microgram per mouse ([…])([…]) Group 2: Substance P, 1 microgram per mouse (1 × 10^-6 g)(33.3 microgram/kg) Group 3: Vehicle alone
On the day before the animals were to be given the drug, each animal was tested on the hot plate analgesiometer for its reaction time (the time in seconds after placing on the hot plate until the animal jumps). The next day animals were given the injection and then tested on the analgesiometer at times of 30, 60, 90, 120 and 150 minutes after the injection. From the reaction times observed the control reaction time determined the previous day was subtracted. The reaction times given in the table below are the increase in reaction time (over the control value) due to the injection.

Male Swiss Webster mice = details: mouse, in vivo; for Reaction times with naloxone: ip
mice [3] = assay: Reaction time in mice after intravenous injection in the tail vein; format: in vivo; details: 50 ng iv tail vein, 90 minutes
Procedure: 50 ng of Substance P was administered peripherally to mice by intravenous injection in the tail vein. The mean reaction time at 90 minutes was 6.2 seconds.

mammals = assay: Analgesic potency, addictiveness and side-effects with morphine sulfate as standard of reference; format: in vivo
test animals = assay: Time course of analgesia in test animals; format: in vivo
Source text: The dosage rate is selected so as to provide analgesia for a useful minimum period of time, while at the same time avoiding any impact of sudden severe lowering of blood pressure.

blood pressure = details: intravenous administration described in the prior art; cited from earlier work
anaesthetized rats = details: injected into anaesthetized rats; cited from earlier work
human blister base = details: isolated, not pure compound per the patent; cited from earlier work

In the case of Tyr-Gly-Gly-Phe-Met [Met-Enk], the “Analgesic activity in vivo” value [1] is listed as “does not exhibit significant analgesic activity in vivo”.
In the case of “Lipotropin C-Fragment: the entire 61-91 LPH fragment, extracted from pig pituitary (YGGFMTSEKSQTPLVTLFKNAIVKNAHKKGQ; Beta-endorphin; UniProt P01192 237-267, looked up)”, the “Potency relative to methionine enkephalin in inhibiting binding of naloxone and dihydromorphine” value (brain opiate receptor) is listed as “approximately thirty”.
In the case of `CSCC[C@H](NC(=O)[C@H](CC(C)C)NC(=O)CNC(=O)[C@H](Cc1ccccc1)NC(=O)[C@H](Cc1ccccc1)NC(=O)[C@H](CCC(N)=O)NC(=O)[C@H](CCC(N)=O)NC(=O)[C@@H]1CCCN1C(=O)[C@H](CCCCN)NC(=O)[C@@H]1CCCN1C(=O)[C@@H](N)CCCNC(=N)N)C(N)=O` [Substance P, H-Arg-Pro-Lys-Pro-Gln-Gln-Phe-Phe-Gly-Leu-Met-NH2], the “Reaction Time Over Controls” value (mice [2]; Group 1: (5 × 10^-9 g)(0.167 microgram/kg) ip, 30 min) is reported as 7.04 ± 1.91 s, the “Reaction Time Over Controls” value (mice [2]; Group 1: (5 × 10^-9 g)(0.167 microgram/kg) ip, 60 min) is reported as 6.56 ± 2.4 s and the “Reaction Time Over Controls” value (mice [2]; Group 1: (5 × 10^-9 g)(0.167 microgram/kg) ip, 90 min) is reported as 8.36 ± 3.2 s. For the same compound, the “Reaction Time Over Controls” value (mice [2]; Group 1: (5 × 10^-9 g)(0.167 microgram/kg) ip, 120 min) was 6.24 ± 1.4 s, the “Reaction Time Over Controls” value (mice [2]; Group 1: (5 × 10^-9 g)(0.167 microgram/kg) ip, 150 min) was 3.84 ± 2.12 s and the “Reaction Time Over Controls” value (mice [2]; Group 2: 1 microgram per mouse (33.3 microgram/kg) ip, 30 min) was 7.6 ± 2.68 s. The “Reaction Time Over Controls” value (mice [2]; Group 2: 1 microgram per mouse (33.3 microgram/kg) ip, 60 min) was 11.44 ± 3.49 s, the “Reaction Time Over Controls” value (mice [2]; Group 2: 1 microgram per mouse (33.3 microgram/kg) ip, 90 min) was 10.96 ± 1.33 s and the “Reaction Time Over Controls” value (mice [2]; Group 2: 1 microgram per mouse (33.3 microgram/kg) ip, 120 min) was 8.2 ± 3.18 s. For the same compound, the “Reaction Time Over Controls” value (mice [2]; Group 2: 1 microgram per mouse (33.3 microgram/kg) ip, 150 min) was 4.08 ± 1.26 s, the “Increases in reaction times compared to the vehicle controls (Student t test)” value (mice [2]; groups 1 and 2, 150 min) was “not statistically significant” and the “Increases in reaction times compared to the vehicle controls (Student t test)” value (mice [2]; groups 1 and 2, all times except 150 min) was “significant”. For the same compound, the “Reaction times compared to those of controls” value (Male Swiss Webster mice) was “significantly increased”, the “Reaction times with naloxone” value (Male Swiss Webster mice) was “not increased during the first measurement, but gradually became longer” and the Mean reaction time (mice [3]) was 6.2 s. For the same compound, the Addictiveness (mammals; in vivo) was “nonaddictive”, the Side-effects (mammals; in vivo) was “relatively free from significant side-effects” and the “Potency as an analgesic relative to morphine sulfate” value (mammals; morphine sulfate as standard of reference) was “about 450 times”. The “Commencement of analgesia following administration” value (test animals) was 20 to 30 min, the “Time to peak effectiveness of analgesia” value (test animals) was “about 1.5 hours” and the “Duration of sharp lowering of blood pressure” value (blood pressure) was ≤ 7 min. The Sialogogic activity (anaesthetized rats) was “stimulated salivary secretion” and the “Algogen (pain-producing) activity” value (human blister base) was “very potent algogen”.
In the case of `CN1CC[C@]23c4c5ccc(O)c4O[C@H]2[C@@H](O)C=C[C@H]3[C@H]1C5.O=S(=O)(O)O` [MS, morphine sulfate, reference compound], the “Reaction times with naloxone” value (Male Swiss Webster mice) is reported as “not increased during the first measurement, but gradually became longer”.

— US4059693A, “Analgesic action of substance P” (priority 1976, dated 1977)
